The source of these data is patent US9260417B2, “Therapeutic methods and compositions involving allosteric kinase inhibition” (AMITECH THERAPEUTIC SOLUTIONS, INC., priority 2010, dated 2016).

One may read the EC50 as the midpoint of the concentration-response curve. One may read the % Inhibition as the drop in the measured response relative to a control, in per cent. What is called inhibition is the relative decrease from the control value, in per cent.

Molecules are shown by their SMILES. Read-outs that look alike come from different tables or passages of the source.

In one data set the test system is HUVECs. Put plainly: XTT viability assay in HUVECs. Type of data set: cell-based, human. Particulars: 72 h, read-out: EC50, endothelial cell viability. The procedure: FIG. 1A-1F illustrate molecular modeling and assay screening to compounds for dual targeting of PDGFRβ and RAF. (FIG. 1A) Molecular modeling of the amino-triazole based small molecules in PDGFRβ and RAF, respectively. […] A homology model of PDGFRβ was created with a structurally-related family member (VEGFR2, PDB 1y6b). […] To autophosphorylation, immunoblots were carried out with a phospho-tyrosine antibody. Membranes were stripped and reprobed for total PDGFRβ levels. […] (FIG. 1D) Structure activity relationships of the amino-triazole based small molecules comparing both PDGFRβ and B-RAF. […] Curves represent the average of 3 separate experiments, error bars represent ±SEM.
For XTT assays, cells were grown in 96-well plates overnight and all assays were conducted in growth medium will full serum and additives. […] Dose-response curves were plotted using GraphPad Prism software and EC50s were calculated using this program.

In another data set the target is FGFR3 (Homo sapiens (Human), UniProt P22607). Put plainly: In vitro kinase panel (SelectScreen). The class given is biochemical. An excerpt: (§1) In vitro kinase screen and competitive binding assay. Sorafenib as well as test compounds were submitted to Invitrogen and screened using their SelectScreen™ Profiling Service.
For a further data set, the target named is JNK3 (Homo sapiens (Human), UniProt P53779). Put plainly: In vitro kinase panel (SelectScreen). The class given is biochemical.
Description: as §1

The target of another data set is MAPKAPK2 (Homo sapiens (Human), UniProt P49137). Put plainly: In vitro kinase panel (SelectScreen). The class given is biochemical. Particulars: for % Inhibition at 10 μM: MAPKAPK2.
Description: as §1

The target in the next data set is PKC delta (Homo sapiens (Human), UniProt Q05655). Put plainly: In vitro kinase panel (SelectScreen). Type of data set: biochemical.
Description: as §1

Another data set has as its target FLT1 (VEGFR1) (Homo sapiens (Human), UniProt P17948). Put plainly: In vitro kinase panel (SelectScreen). The class given is biochemical.
Description: as §1

The next data set has as its target CRAF Y340D Y341D (Homo sapiens (Human), UniProt P04049, Y340D/Y341D). Put plainly: In vitro kinase panel (SelectScreen). Type of data set: biochemical.
Description: as §1

The target of the next data set is PDGFR beta (Homo sapiens (Human), UniProt P09619). Put plainly: In vitro kinase panel (SelectScreen). The class given is biochemical.
Description: as §1

The target of the next data set is JNK1 (Homo sapiens (Human), UniProt P45983). Put plainly: In vitro kinase panel (SelectScreen). Type of data set: biochemical.
Description: as §1

For the next data set, the target named is KIT (Homo sapiens (Human), UniProt P10721). Put plainly: In vitro kinase panel (SelectScreen). The class given is biochemical.
Description: as §1

The next data set deals with AKT1 (Homo sapiens (Human), UniProt P31749). Put plainly: In vitro kinase panel (SelectScreen). Type of data set: biochemical.
Description: as §1

Another data set concerns the target FGFR2 (Homo sapiens (Human), UniProt P21802). Put plainly: In vitro kinase panel (SelectScreen). Type of data set: biochemical.
Description: as §1

A further data set concerns the target IGF1R (Homo sapiens (Human), UniProt P08069). Put plainly: In vitro kinase panel (SelectScreen). The class given is biochemical.
Description: as §1

The target of the next data set is FGFR1 (Homo sapiens (Human), UniProt P11362). Put plainly: In vitro kinase panel (SelectScreen). The class given is biochemical.
Description: as §1

In a further data set the target is PKC iota (Homo sapiens (Human), UniProt P41743). Put plainly: In vitro kinase panel (SelectScreen). Type of data set: biochemical.
Description: as §1

The target in another data set is FGFR3 K650E (Homo sapiens (Human), UniProt P22607, K650E). Put plainly: In vitro kinase panel (SelectScreen). The class given is biochemical.
Description: as §1

A further data set deals with MET M1250T (Homo sapiens (Human), UniProt P08581, M1250T). Put plainly: In vitro kinase panel (SelectScreen). The class given is biochemical.
Description: as §1

The target of the next data set is PKC eta (Homo sapiens (Human), UniProt P24723). Put plainly: In vitro kinase panel (SelectScreen). The class given is biochemical.
Description: as §1

The target of a further data set is FAK2 (Homo sapiens (Human), UniProt Q14289). Put plainly: In vitro kinase panel (SelectScreen). The class given is biochemical.
Description: as §1

In data set [1] the test system is Tg(fli1:EGFP) zebrafish embryos. Put plainly: Zebrafish angiogenesis model. The following applies: for blood vessel formation in zebrafish embryos: treated 20-48 hpf, 1 μM 6 or SU5416, up to 10 μM 3; for effect on established intersegmental vessels: compound added at 30 hpf, […] 6, 1 μM sorafenib; for viability of zebrafish embryos: treatment at 48-72 hpf. The procedure: Embryos were treated with 1 μM 6 or SU5416, or 10 μM 3 from 20 hours post fertilization (hpf) until 48 hpf. Representative 3D reconstructions of the blood vasculature are shown for both the head and tail regions of the embryo. Designations for the major vessels in the head and tail of the zebrafish embryo at 48 hpf are available in FIG. 8A. (FIG. 3B) Disruption of lumen formation in the zebrafish during late vessel maturation. Zebrafish treated with either 1 μM 6 or 10 μM 3 from 20-48 hpf were imaged at 35 and 48 hpf. […] Shown is 3D overlap reconstruction of the GFP expressing intersegmental vessels with TUNEL-positive nuclei at 48 hpf (shown in red). Representative phase contrast views as well as quantification of intersegmental vessel volumes from FIG. 3A and FIG. 3B can be found in FIG. 8B-D, respectively. (FIG. 3C) Time course of drug addition to zebrafish. […] At 30 hpf the zebrafish embryos established early vessels with evident lumens. […] All scale bars=100 μm.
Z-stacks from laser scanning confocal microscopy are shown depicting formation of the intersegmental vessels at 48 hpf. n=6 embryos/treatment. (FIG. 4B) HUVECs were co-cultured with hTERT-human hepatic stellate cells in a 3-D collagen matrix in the presence of complete EBM-2 medium to monitor pericyte-associated endothelial tube formation. […] The endothelial tubes were stained at 24 h by adding 2 μl FITC labeled Ulex europaeus lectin (Vector labs) per well. Images were acquired 48 h post seeding of the cells. One representative panel from 3 independent experiments is shown. Green—FITC lectin labeled endothelial cells, Red—DiIC(3) labeled stellate cells. […] Scale bar=200 μm. (FIG. 4C) Tube lengths were measured using Metamorph software for each tube for all 10 fields that were acquired. The % pericyte-covered tube length was calculated from the ratio of tube length sums for the tubes with and without pericyte contact. Error bars are reported as ±SEM of two wells per group. *indicates p<0.05 compared to DMSO group.
Zebrafish studies. Transgenic Tg(fli1:EGFP) zebrafish embryos were purchased from www.zfin.org and reported elsewhere (Lawson, et al. (2002) Dev Biol 248:307-318) and maintained according to (“Zebrafish—A Practical Approach”, Oxford University Press, 2002). Compounds in DMSO stock solutions were diluted directly into the water and vessels were imaged for GFP expression using a Nikon c1-si confocal microscope. Apoptosis was measured by TUNEL staining using the Apoptag in situ Red Fluorescence Kit (Chemicon) with a protocol described previously (Stanton, et al. (2006) The Journal of biological chemistry 281:28782-28793).

A further data set deals with FLT3 (Homo sapiens (Human), UniProt P36888). Put plainly: In vitro kinase panel (SelectScreen). Type of data set: biochemical.
Where [2] appears, read: HUVECs, full growth medium containing 10% FBS.

Sequence of FLT3 (P36888 27-993): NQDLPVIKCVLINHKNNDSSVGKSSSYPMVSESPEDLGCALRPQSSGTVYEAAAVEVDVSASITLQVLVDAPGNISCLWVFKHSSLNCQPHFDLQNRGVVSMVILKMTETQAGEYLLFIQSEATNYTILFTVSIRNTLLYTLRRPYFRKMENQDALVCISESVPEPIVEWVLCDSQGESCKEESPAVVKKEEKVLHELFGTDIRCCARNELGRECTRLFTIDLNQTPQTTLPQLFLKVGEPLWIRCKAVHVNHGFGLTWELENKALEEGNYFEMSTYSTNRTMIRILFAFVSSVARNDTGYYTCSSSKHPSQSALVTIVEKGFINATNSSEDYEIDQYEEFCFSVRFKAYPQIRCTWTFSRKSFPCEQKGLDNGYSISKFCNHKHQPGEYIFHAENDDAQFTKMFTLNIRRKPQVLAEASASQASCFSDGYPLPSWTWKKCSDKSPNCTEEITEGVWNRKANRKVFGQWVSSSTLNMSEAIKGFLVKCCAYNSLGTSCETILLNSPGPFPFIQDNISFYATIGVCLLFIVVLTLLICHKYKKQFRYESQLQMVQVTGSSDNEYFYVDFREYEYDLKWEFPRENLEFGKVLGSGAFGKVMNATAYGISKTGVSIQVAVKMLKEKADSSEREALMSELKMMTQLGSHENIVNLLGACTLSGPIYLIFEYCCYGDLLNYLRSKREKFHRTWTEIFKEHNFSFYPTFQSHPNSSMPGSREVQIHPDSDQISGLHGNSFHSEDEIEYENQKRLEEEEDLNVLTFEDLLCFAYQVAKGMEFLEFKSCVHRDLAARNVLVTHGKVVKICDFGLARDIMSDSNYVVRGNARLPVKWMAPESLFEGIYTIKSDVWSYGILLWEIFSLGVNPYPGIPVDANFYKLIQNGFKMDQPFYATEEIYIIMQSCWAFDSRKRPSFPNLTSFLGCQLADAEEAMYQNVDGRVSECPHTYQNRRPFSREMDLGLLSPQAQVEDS
Sequence of FGFR3 (P22607 23-806): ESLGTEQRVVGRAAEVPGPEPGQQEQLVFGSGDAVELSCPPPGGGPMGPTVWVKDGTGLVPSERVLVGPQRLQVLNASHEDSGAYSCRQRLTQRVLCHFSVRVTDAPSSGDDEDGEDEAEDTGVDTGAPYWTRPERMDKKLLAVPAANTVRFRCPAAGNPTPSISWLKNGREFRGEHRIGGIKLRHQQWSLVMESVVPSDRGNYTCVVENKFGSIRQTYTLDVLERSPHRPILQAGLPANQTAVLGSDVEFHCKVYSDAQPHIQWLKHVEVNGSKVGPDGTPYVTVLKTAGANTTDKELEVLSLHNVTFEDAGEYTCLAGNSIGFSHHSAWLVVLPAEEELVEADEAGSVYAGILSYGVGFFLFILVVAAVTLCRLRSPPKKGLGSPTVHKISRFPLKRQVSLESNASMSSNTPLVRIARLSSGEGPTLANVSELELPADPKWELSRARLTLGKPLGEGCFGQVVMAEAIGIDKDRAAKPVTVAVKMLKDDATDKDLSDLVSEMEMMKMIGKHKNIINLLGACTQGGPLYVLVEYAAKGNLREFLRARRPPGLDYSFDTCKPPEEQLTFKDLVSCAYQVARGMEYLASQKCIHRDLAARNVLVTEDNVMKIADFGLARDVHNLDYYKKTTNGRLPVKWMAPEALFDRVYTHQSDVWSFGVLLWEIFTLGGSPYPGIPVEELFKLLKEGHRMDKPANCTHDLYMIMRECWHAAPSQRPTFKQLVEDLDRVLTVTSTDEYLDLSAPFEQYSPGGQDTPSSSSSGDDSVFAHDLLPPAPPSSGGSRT
Sequence of PDGFR beta (P09619 33-1106): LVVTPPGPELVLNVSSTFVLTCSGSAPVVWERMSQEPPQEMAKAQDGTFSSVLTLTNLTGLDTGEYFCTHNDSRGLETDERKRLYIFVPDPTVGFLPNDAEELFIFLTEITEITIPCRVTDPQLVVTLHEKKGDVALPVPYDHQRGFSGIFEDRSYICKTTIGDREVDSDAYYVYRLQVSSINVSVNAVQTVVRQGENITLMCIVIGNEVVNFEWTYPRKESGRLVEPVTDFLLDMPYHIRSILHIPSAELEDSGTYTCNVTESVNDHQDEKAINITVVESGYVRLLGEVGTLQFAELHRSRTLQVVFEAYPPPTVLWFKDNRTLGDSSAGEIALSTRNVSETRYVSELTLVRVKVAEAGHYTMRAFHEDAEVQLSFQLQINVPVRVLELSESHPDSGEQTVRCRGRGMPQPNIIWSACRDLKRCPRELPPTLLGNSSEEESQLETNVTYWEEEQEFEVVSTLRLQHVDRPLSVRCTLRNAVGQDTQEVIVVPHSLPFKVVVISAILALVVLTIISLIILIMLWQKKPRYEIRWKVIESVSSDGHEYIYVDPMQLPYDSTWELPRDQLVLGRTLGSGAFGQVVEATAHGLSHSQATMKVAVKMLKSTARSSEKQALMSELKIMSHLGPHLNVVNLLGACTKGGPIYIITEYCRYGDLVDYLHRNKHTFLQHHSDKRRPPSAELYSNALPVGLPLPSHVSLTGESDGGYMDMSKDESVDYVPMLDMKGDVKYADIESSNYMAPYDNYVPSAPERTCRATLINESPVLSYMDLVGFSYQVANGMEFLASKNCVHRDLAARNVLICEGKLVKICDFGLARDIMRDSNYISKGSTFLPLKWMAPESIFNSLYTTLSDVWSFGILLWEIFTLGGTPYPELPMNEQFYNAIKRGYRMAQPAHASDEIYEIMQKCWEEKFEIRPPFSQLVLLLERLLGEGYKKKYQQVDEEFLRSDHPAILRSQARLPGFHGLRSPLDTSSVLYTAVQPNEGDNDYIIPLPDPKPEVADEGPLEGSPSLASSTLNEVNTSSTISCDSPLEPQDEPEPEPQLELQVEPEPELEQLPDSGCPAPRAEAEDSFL
Sequence of FGFR2 (P21802 22-821): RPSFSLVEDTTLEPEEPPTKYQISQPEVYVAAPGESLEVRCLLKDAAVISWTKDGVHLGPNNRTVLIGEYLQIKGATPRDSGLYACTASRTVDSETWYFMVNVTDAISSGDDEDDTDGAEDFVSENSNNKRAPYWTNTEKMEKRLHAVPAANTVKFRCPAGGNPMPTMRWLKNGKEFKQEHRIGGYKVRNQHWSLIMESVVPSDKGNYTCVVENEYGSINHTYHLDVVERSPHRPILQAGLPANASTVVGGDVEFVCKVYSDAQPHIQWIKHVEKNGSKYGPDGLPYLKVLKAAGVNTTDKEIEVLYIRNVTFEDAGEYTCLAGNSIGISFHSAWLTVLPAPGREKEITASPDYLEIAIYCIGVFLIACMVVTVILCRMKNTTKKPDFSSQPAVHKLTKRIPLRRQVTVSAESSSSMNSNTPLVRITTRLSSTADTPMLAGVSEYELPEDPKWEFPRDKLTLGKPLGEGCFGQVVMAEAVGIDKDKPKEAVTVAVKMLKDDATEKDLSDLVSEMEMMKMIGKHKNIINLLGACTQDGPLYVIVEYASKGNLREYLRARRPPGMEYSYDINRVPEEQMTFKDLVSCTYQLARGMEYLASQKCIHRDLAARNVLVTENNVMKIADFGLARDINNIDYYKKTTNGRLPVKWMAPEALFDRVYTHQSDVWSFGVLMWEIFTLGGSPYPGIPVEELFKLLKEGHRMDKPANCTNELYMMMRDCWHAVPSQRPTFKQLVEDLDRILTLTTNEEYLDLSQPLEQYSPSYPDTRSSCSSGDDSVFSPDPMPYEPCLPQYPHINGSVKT
Sequence of FAK2 (Q14289 whole entry): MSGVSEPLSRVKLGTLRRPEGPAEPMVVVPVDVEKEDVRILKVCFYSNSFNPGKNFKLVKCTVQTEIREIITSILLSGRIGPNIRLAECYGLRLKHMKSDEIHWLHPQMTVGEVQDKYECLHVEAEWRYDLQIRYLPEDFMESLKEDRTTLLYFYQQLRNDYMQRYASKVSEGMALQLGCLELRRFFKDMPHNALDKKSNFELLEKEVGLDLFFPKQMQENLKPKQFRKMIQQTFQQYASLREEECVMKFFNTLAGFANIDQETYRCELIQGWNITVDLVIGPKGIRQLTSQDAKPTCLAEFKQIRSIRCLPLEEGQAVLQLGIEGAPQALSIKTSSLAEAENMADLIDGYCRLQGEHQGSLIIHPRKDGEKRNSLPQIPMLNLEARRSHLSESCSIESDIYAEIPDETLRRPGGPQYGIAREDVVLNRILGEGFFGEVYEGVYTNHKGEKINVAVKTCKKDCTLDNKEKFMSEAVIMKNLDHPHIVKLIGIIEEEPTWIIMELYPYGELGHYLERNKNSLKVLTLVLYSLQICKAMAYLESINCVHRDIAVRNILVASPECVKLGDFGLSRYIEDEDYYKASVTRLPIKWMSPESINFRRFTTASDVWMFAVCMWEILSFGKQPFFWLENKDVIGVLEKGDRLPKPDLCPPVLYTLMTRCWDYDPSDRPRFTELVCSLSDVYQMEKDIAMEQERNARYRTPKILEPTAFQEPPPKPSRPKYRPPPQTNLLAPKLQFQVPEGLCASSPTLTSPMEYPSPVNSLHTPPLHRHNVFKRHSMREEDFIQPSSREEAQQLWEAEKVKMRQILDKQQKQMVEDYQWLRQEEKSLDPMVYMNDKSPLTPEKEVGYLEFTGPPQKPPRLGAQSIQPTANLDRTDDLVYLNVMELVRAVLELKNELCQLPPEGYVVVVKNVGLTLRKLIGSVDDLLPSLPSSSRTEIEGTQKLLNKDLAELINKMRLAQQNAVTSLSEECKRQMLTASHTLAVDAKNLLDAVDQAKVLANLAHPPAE
Sequence of JNK1 (P45983 whole entry): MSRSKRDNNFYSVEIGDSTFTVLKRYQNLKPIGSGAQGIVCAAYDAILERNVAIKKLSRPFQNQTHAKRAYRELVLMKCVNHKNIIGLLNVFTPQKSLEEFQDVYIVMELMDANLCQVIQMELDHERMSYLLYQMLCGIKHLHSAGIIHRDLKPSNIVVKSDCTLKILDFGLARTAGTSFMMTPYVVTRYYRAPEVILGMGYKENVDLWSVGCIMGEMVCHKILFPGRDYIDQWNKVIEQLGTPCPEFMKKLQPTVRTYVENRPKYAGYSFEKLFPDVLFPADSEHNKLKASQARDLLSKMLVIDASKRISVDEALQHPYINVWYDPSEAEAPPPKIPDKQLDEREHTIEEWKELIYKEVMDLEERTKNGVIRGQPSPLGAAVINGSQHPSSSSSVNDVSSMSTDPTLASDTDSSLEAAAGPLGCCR
Description for FLT3: In vitro kinase screen and competitive binding assay. […] 11-point Kd curves were determined for hits identified during the initial screen.

Turning to `Nc1cc(Oc2ccc(-c3nnc(Nc4cccc(C(F)(F)F)c4)[nH]3)cc2)ncn1` [Compound 3], the EC50 in the data set on HUVECs (setting [2]) was determined as 18 µM. Also, the “% Inhibition at 10 μM” value at FGFR3 is −12%; on JNK3, −8%; at MAPKAPK2, 1%; at PKC delta, −1%; on FLT1 (VEGFR1), 5%; at CRAF Y340D Y341D, 38%. The “% Inhibition at 10 μM” value at PDGFR beta is on record as 35%; on JNK1, −5%; on KIT it was 74%; at AKT1 it was 1%; at FGFR2, −1%; on IGF1R, −4%. The “% Inhibition at 10 μM” value is 9% at FGFR1; −2% on PKC iota; 4% on FGFR3 K650E; 4% on MET M1250T; 1% at PKC eta; −4% on FAK2. On FLT3, the “% Inhibition at 10 μM” value was −4%. For the same compound, the “blood vessel formation in zebrafish embryos” value in data set [1] is given as “had no effect”.

In the case of `CSc1nc(N)cc(Oc2ccc(-c3nnc(Nc4cccc(C(F)(F)F)c4)[nH]3)cc2)n1` [Compound 6], the concentration giving a half-maximal response (EC50) in the data set with HUVECs (setting [2]) was determined as 0.54 µM. Further, the “% Inhibition at 10 μM” value on FGFR3 is on record as −13%; at JNK3, −8%; at MAPKAPK2, 2%; on PKC delta it was −1%; on FLT1 (VEGFR1), −2%; on CRAF Y340D Y341D it was 3%. The “% Inhibition at 10 μM” value at PDGFR beta is on record as 20%; at JNK1 it was −3%; at KIT, 28%; at AKT1, 2%; on FGFR2, −2%; on IGF1R, 0%. For the same compound, the “% Inhibition at 10 μM” value is on record as 6% at FGFR1; 0% on PKC iota; −1% on FGFR3 K650E; −1% on MET M1250T; 3% on PKC eta; −4% on FAK2. In addition, the “% Inhibition at 10 μM” value on FLT3 is on record as −2%. For the same compound, the “effect on established intersegmental vessels” value in data set [1] was “did not suppress the vascular growth and patterning”. For the same compound, the “blood vessel formation in zebrafish embryos” value in data set [1] is on record as “failed to form mature intersegmental vessels”. Also, in data set [1], the “viability of zebrafish embryos” value is reported as “all viable”.

For `CNC(=O)c1cc(Oc2ccc(NC(=O)Nc3ccc(Cl)c(C(F)(F)F)c3)cc2)ccn1` [sorafenib, reference compound], the EC50 in the data set on HUVECs (Homo sapiens, HUVEC) came to 13.2 µM. Further, the inhibition at 10 µM is 37% against FGFR3; -4% against JNK3; 2% on MAPKAPK2 (read-out: % Inhibition at 10 μM); -4% against PKC delta; 93% against FLT1 (VEGFR1); 95% against CRAF Y340D Y341D. The inhibition at 10 µM is 93% against PDGFR beta; -2% against JNK1; 37% on KIT; 2% on AKT1; 83% against FGFR2; -3% against IGF1R. The inhibition at 10 µM at FGFR1 is 44%; against PKC iota, -2%; on FGFR3 K650E it was 78%; at MET M1250T it was 3%; at PKC eta it was 2%; against FAK2, -3%. The inhibition at 10 µM at FLT3 was 9%. Also, in data set [1], the “effect on established intersegmental vessels” value is listed as “disrupted mature intersegmental blood vessels”. Moreover, the “viability of zebrafish embryos” value in data set [1] is listed as “induced death in all animals tested”.
